Laboratory results as given in ChEMBL document CHEMBL4312026, “Synthesis, biological and molecular dynamics investigations with a series of triazolopyrimidine/triazole-based benzenesulfonamides as novel carbonic anhydrase inhibitors” (Eur J Med Chem, 2020).
pKi: −log10 of the molar value.

Legend:
Carbonic anhydrase 1 [1] = target: T1, Carbonic anhydrase 1 (Homo sapiens, UniProt P00915); experiment: Inhibition of recombinant human carbonic anhydrase-1 incubated for 15 mins by stopped flow CO2 hydrase assay
Carbonic anhydrase 2 [2] = target: T2, Carbonic anhydrase 2 (Homo sapiens, UniProt P00918); experiment: Inhibition of recombinant human carbonic anhydrase-2 incubated for 15 mins by stopped flow CO2 hydrase assay
Carbonic anhydrase 9 [3] = target: T3, Carbonic anhydrase 9 (Homo sapiens, UniProt Q16790); experiment: Inhibition of recombinant human carbonic anhydrase-9 incubated for 15 mins by stopped flow CO2 hydrase assay
Carbonic anhydrase 1 [4] = target: T1, Carbonic anhydrase 1; experiment: Inhibition of recombinant human carbonic anhydrase-1 at 0.01 uM after 15 mins by stopped flow CO2 hydrase assay (reference value: 0%)
Carbonic anhydrase 1 [5] = target: T1, Carbonic anhydrase 1; experiment: Inhibition of recombinant human carbonic anhydrase-1 at 0.1 uM after 15 mins by stopped flow CO2 hydrase assay (reference value: 0%)
Carbonic anhydrase 1 [6] = target: T1, Carbonic anhydrase 1; experiment: Inhibition of recombinant human carbonic anhydrase-1 at 1 uM after 15 mins by stopped flow CO2 hydrase assay (reference value: 0%)
Carbonic anhydrase 1 [7] = target: T1, Carbonic anhydrase 1; experiment: Inhibition of recombinant human carbonic anhydrase-1 at 10 uM after 15 mins by stopped flow CO2 hydrase assay (reference value: 0%)
Carbonic anhydrase 2 [8] = target: T2, Carbonic anhydrase 2; experiment: Inhibition of recombinant human carbonic anhydrase-2 at 0.01 uM after 15 mins by stopped flow CO2 hydrase assay (reference value: 0%)
Carbonic anhydrase 2 [9] = target: T2, Carbonic anhydrase 2; experiment: Inhibition of recombinant human carbonic anhydrase-2 at 0.1 uM after 15 mins by stopped flow CO2 hydrase assay (reference value: 0%)
Carbonic anhydrase 2 [10] = target: T2, Carbonic anhydrase 2; experiment: Inhibition of recombinant human carbonic anhydrase-2 at 1 uM after 15 mins by stopped flow CO2 hydrase assay (reference value: 0%)
Carbonic anhydrase 2 [11] = target: T2, Carbonic anhydrase 2; experiment: Inhibition of recombinant human carbonic anhydrase-2 at 10 uM after 15 mins by stopped flow CO2 hydrase assay (reference value: 0%)
Carbonic anhydrase 9 [12] = target: T3, Carbonic anhydrase 9; experiment: Inhibition of recombinant human carbonic anhydrase-9 at 0.1 nM after 15 mins by stopped flow CO2 hydrase assay (reference value: 0%)
Carbonic anhydrase 9 [13] = target: T3, Carbonic anhydrase 9; conditions: at 1 nM
Description: Inhibition of recombinant human carbonic anhydrase-9 at 1 nM after 15 mins by stopped flow CO2 hydrase assay (Rvb = 0%)

Carbonic anhydrase 9 [14] = target: T3, Carbonic anhydrase 9; conditions: at 0.01 µM
Description: Inhibition of recombinant human carbonic anhydrase-9 at 0.01 uM after 15 mins by stopped flow CO2 hydrase assay (Rvb = 0%)

Carbonic anhydrase 9 [15] = target: T3, Carbonic anhydrase 9; conditions: at 0.1 µM
Description: Inhibition of recombinant human carbonic anhydrase-9 at 0.1 uM after 15 mins by stopped flow CO2 hydrase assay (Rvb = 0%)

T1 sequence (P00915 whole entry): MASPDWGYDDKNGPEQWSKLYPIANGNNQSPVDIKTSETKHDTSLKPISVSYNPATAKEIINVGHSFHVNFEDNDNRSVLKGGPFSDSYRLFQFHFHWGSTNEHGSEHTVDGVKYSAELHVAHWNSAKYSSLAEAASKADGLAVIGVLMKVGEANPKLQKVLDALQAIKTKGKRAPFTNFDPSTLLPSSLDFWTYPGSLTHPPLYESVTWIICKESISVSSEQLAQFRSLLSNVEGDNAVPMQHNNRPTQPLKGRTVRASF

## Cc1cc(=O)n2c(C(=O)N/N=C/c3ccncc3)nn(-c3ccc(S(N)(=O)=O)cc3)c2n1
Carbonic anhydrase 1 [1]
  pKi: 5.61
Carbonic anhydrase 2 [2]
  pKi: 6.34
Carbonic anhydrase 9 [3]
  pKi: 7.61

## Nc1nc(C(=O)NNC(=O)Nc2ccccc2)nn1-c1ccc(S(N)(=O)=O)cc1
Carbonic anhydrase 1 [1]
  pKi: 6.51
Carbonic anhydrase 2 [2]
  pKi: 7.15
Carbonic anhydrase 9 [3]
  pKi: 8.31

## NS(=O)(=O)c1ccc(-n2nnc(C(=O)N/N=C(/CC(=O)c3ccccn3)C(F)(F)F)c2-c2ccccc2)cc1
Carbonic anhydrase 9 [3]
  pKi: 9.15

## Cc1cc(=O)n2c(C(=O)N/N=C/c3ccccn3)nn(-c3ccc(S(N)(=O)=O)cc3)c2n1
Carbonic anhydrase 1 [1]
  pKi: 5.43
Carbonic anhydrase 2 [2]
  pKi: 6.27
Carbonic anhydrase 9 [3]
  pKi: 7.32

## Nc1nc(C(=O)N/N=C/c2ccc(N3CCOCC3)cc2)nn1-c1ccc(S(N)(=O)=O)cc1
Carbonic anhydrase 1 [1]
  pKi: 6.01
Carbonic anhydrase 2 [2]
  pKi: 7.19
Carbonic anhydrase 9 [3]
  pKi: 7.71

## Nc1nc(NC(=O)Nc2ccccc2)nn1-c1ccc(S(N)(=O)=O)cc1
Carbonic anhydrase 1 [1]
  pKi: 6.35
Carbonic anhydrase 2 [2]
  pKi: 8.01
Carbonic anhydrase 9 [3]
  pKi: 8.09

## Nc1nc(C(=O)N/N=C/c2cccnc2)nn1-c1ccc(S(N)(=O)=O)cc1
Carbonic anhydrase 1 [1]
  pKi: 6.32
Carbonic anhydrase 2 [2]
  pKi: 7.13
Carbonic anhydrase 9 [3]
  pKi: 8.18

## C/C(=N\NC(=O)c1nc(N)n(-c2ccc(S(N)(=O)=O)cc2)n1)c1ccncc1
Carbonic anhydrase 1 [1]
  pKi: 6.53
Carbonic anhydrase 2 [2]
  pKi: 8.07
Carbonic anhydrase 9 [3]
  pKi: 8.24

## Nc1nc(NC(=O)Nc2ccc(C(=O)O)cc2)nn1-c1ccc(S(N)(=O)=O)cc1
Carbonic anhydrase 1 [1]
  pKi: 6.29
Carbonic anhydrase 2 [2]
  pKi: 8.02
Carbonic anhydrase 9 [3]
  pKi: 7.82

## Nc1nc(NC(=O)Nc2ccc(Cl)cc2)nn1-c1ccc(S(N)(=O)=O)cc1
Carbonic anhydrase 1 [1]
  pKi: 6.39
Carbonic anhydrase 2 [2]
  pKi: 8.02
Carbonic anhydrase 9 [3]
  pKi: 7.36

## C/C(=N\NC(=O)c1nc(N)n(-c2ccc(S(N)(=O)=O)cc2)n1)c1ccc(N2CCOCC2)cc1
Carbonic anhydrase 1 [1]
  pKi: 6.10
Carbonic anhydrase 2 [2]
  pKi: 7.27
Carbonic anhydrase 9 [3]
  pKi: 7.50

## Cc1cc(=O)n2c(C(=O)N/N=C/c3ccc(N4CCN(C)CC4)cc3)nn(-c3ccc(S(N)(=O)=O)cc3)c2n1
Carbonic anhydrase 1 [1]
  pKi: 5.31
Carbonic anhydrase 2 [2]
  pKi: 6.08
Carbonic anhydrase 9 [3]
  pKi: 7.07

## CC(=O)OC[C@@H]1O[C@@H](OCc2cn(-c3ccc(S(N)(=O)=O)cc3)nn2)[C@@H](OC(C)=O)[C@H](OC(C)=O)[C@H]1OC(C)=O
Carbonic anhydrase 9 [3]
  pKi: 8.01

## Nc1nc(C(=O)N/N=C/c2ccc([N+](=O)[O-])cc2)nn1-c1ccc(S(N)(=O)=O)cc1
Carbonic anhydrase 1 [1]
  pKi: 5.81
Carbonic anhydrase 2 [2]
  pKi: 7.61
Carbonic anhydrase 9 [3]
  pKi: 7.46

## Cc1cc(=O)n2c(C(=O)NN)nn(-c3ccc(S(N)(=O)=O)cc3)c2n1
Carbonic anhydrase 1 [1]
  pKi: 5.78
Carbonic anhydrase 2 [2]
  pKi: 7.13
Carbonic anhydrase 9 [3]
  pKi: 7.34

## NNC(=O)c1nc(N)n(-c2ccc(S(N)(=O)=O)cc2)n1
Carbonic anhydrase 1 [1]
  pKi: 6.28
Carbonic anhydrase 2 [2]
  pKi: 7.70
Carbonic anhydrase 9 [3]
  pKi: 7.64

## Cc1ccc(NC(=O)Nc2nc(N)n(-c3ccc(S(N)(=O)=O)cc3)n2)cc1
Carbonic anhydrase 1 [1]
  pKi: 6.51
Carbonic anhydrase 2 [2]
  pKi: 7.37
Carbonic anhydrase 9 [3]
  pKi: 8.41

## COC(=O)c1nn(-c2ccc(S(N)(=O)=O)cc2)c2nc3cc(-c4cccs4)cc(-c4ccc([N+](=O)[O-])cc4)c3c(=O)n12
Carbonic anhydrase 9 [3]
  pKi: 9.80

## Nc1nc(C(=O)N/N=C/c2ccc(N3CCCCC3)cc2)nn1-c1ccc(S(N)(=O)=O)cc1
Carbonic anhydrase 1 [1]
  pKi: 6.08
Carbonic anhydrase 2 [2]
  pKi: 7.02
Carbonic anhydrase 9 [3]
  pKi: 7.48

## Nc1nc(C(=O)N/N=C/c2ccc(F)cc2)nn1-c1ccc(S(N)(=O)=O)cc1
Carbonic anhydrase 1 [1]
  pKi: 6.31
Carbonic anhydrase 2 [2]
  pKi: 7.19
Carbonic anhydrase 9 [3]
  pKi: 7.50

## CCOC(=O)c1nn(-c2ccc(S(N)(=O)=O)cc2)c2nc(C)cc(=O)n12
Carbonic anhydrase 1 [1]
  pKi: 6.16
Carbonic anhydrase 2 [2]
  pKi: 7.07
Carbonic anhydrase 9 [3]
  pKi: 7.44

## Nc1nc(C(=O)NNC(=S)Nc2ccccc2)nn1-c1ccc(S(N)(=O)=O)cc1
Carbonic anhydrase 1 [1]
  pKi: 6.43
Carbonic anhydrase 2 [2]
  pKi: 8.01
Carbonic anhydrase 9 [3]
  pKi: 7.40

## C/C(=N\NC(=O)c1nc(N)n(-c2ccc(S(N)(=O)=O)cc2)n1)c1ccccc1
Carbonic anhydrase 1 [1]
  pKi: 6.20
Carbonic anhydrase 2 [2]
  pKi: 8.05
Carbonic anhydrase 9 [3]
  pKi: 7.38

## Nc1nc(NC(=O)Nc2ccc(S(N)(=O)=O)cc2)nn1-c1ccc(S(N)(=O)=O)cc1
Carbonic anhydrase 1 [1]
  pKi: 6.17
Carbonic anhydrase 2 [2]
  pKi: 7.10
Carbonic anhydrase 9 [3]
  pKi: 7.54

## COc1ccc(NC(=O)Nc2nc(N)n(-c3ccc(S(N)(=O)=O)cc3)n2)cc1
Carbonic anhydrase 1 [1]
  pKi: 6.16
Carbonic anhydrase 2 [2]
  pKi: 6.90
Carbonic anhydrase 9 [3]
  pKi: 8.48
Carbonic anhydrase 1 [4]
  inhibition at 0.25 h, 0.01 µM: 14%
Carbonic anhydrase 1 [5]
  inhibition at 0.25 h, 0.1 µM: 31%
Carbonic anhydrase 1 [6]
  inhibition at 0.25 h, 1 µM: 63%
Carbonic anhydrase 1 [7]
  inhibition at 0.25 h, 10 µM: 75%
Carbonic anhydrase 2 [8]
  inhibition at 0.25 h, 0.01 µM: 15%
Carbonic anhydrase 2 [9]
  inhibition at 0.25 h, 0.1 µM: 48%
Carbonic anhydrase 2 [10]
  inhibition at 0.25 h, 1 µM: 76%
Carbonic anhydrase 2 [11]
  inhibition at 0.25 h, 10 µM: 85%
Carbonic anhydrase 9 [12]
  inhibition: 18 to 20%
Carbonic anhydrase 9 [13]
  inhibition: 45 to 47%
Carbonic anhydrase 9 [14]
  inhibition: 72 to 74%
Carbonic anhydrase 9 [15]
  inhibition: 79 to 81%

## Nc1nc(NC(=O)Nc2ccc(F)cc2)nn1-c1ccc(S(N)(=O)=O)cc1
Carbonic anhydrase 1 [1]
  pKi: 7.03
Carbonic anhydrase 2 [2]
  pKi: 7.18
Carbonic anhydrase 9 [3]
  pKi: 8.11

## Nc1nc(C(=O)N/N=C/c2ccccc2)nn1-c1ccc(S(N)(=O)=O)cc1
Carbonic anhydrase 1 [1]
  pKi: 6.11
Carbonic anhydrase 2 [2]
  pKi: 7.06
Carbonic anhydrase 9 [3]
  pKi: 7.39

## COc1ccc(/C=N/NC(=O)c2nn(-c3ccc(S(N)(=O)=O)cc3)c3nc(C)cc(=O)n23)cc1
Carbonic anhydrase 1 [1]
  pKi: 5.62
Carbonic anhydrase 2 [2]
  pKi: 6.49
Carbonic anhydrase 9 [3]
  pKi: 7.20

## Nc1nc(C(=O)NNC(=O)Nc2ccc(Cl)cc2)nn1-c1ccc(S(N)(=O)=O)cc1
Carbonic anhydrase 1 [1]
  pKi: 6.27
Carbonic anhydrase 2 [2]
  pKi: 7.96
Carbonic anhydrase 9 [3]
  pKi: 7.79

## Nc1nc(C(=O)N/N=C/c2ccc(Cl)cc2)nn1-c1ccc(S(N)(=O)=O)cc1
Carbonic anhydrase 1 [1]
  pKi: 6.15
Carbonic anhydrase 2 [2]
  pKi: 8.16
Carbonic anhydrase 9 [3]
  pKi: 7.14

## Nc1nc(C(=O)NNC(=S)Nc2ccc(Cl)cc2)nn1-c1ccc(S(N)(=O)=O)cc1
Carbonic anhydrase 1 [1]
  pKi: 6.22
Carbonic anhydrase 2 [2]
  pKi: 7.95
Carbonic anhydrase 9 [3]
  pKi: 7.78

## Nc1nc(C(=O)N/N=C/c2ccc(O)cc2)nn1-c1ccc(S(N)(=O)=O)cc1
Carbonic anhydrase 1 [1]
  pKi: 6.48
Carbonic anhydrase 2 [2]
  pKi: 8.06
Carbonic anhydrase 9 [3]
  pKi: 8.08
